Data reported in US10315990B2, “Isothiocyanate compounds and isothiocyanate XPO1 protein inhibitor drugs thereof” (DRIVINGFORCE THERAPEUTICS Co., Ltd., priority 2015, dated 2019).
pIC50: −log10 of the molar value.

How the values were obtained:
[1] = system: SK-OV3 (high metastasis type ovarian cancer cell line); assay: Ovarian cancer intraperitoneal metastasis animal model; type: in vivo, nudemice (BALB/c-nu/nu); settings: Mus musculus, SK-OV-3, ip
[2] = system: TNF-α; assay: Serum TNF-α level of IBD animal model (ELISA); type: in vivo, SD rats; settings: 80 mg/kg, three days after making the TNBS model
Excerpt: Inflammatory bowel disease is an autoimmune disease. […] The therapeutic effect of the representative compound for the immune system disease or inflammation can be assessed by detecting change in levels of some important cytokines such as TNF-α and IL-6 at downstream of the signal path.

[3] = system: CaSki; assay: Inhibitory activity for other high metastasis type cancer cell line (MTT or CCK-8); type: cell-based; settings: Homo sapiens, Ca-Ski; CaSki, 72 hours; read-out: IC50
[4] = system: HCT116; assay: Inhibitory activity for high metastasis type colon cancer cell line (MTT or CCK-8); type: cell-based; settings: Homo sapiens, HCT-116; HCT116, 72 hours; read-out: IC50
[5] = system: SW620; assay: as above; type: cell-based; settings: Homo sapiens, SW-620; SW620, 72 hours; read-out: IC50
[6] = system: Raji; assay: Inhibitory activity for high metastasis type lymphoma cell line (MTT or CCK-8); type: cell-based; settings: Homo sapiens, 72 hours, read-out: IC50
Procedure: (§1) Jeko-1, Raji and U2932 are three typical high metastasis type lymphoma cell lines. The lymphoma cell line was inoculated on 96-well cell culture plate in an amount of 6000 cells per well and cultured at 37° C. for 24 hours, and then treated solely with the compound added therein and cultured. Seventy-two hours later, MTT or CCK-8 method was used to detect the inhibitory activity of the compound for the two high metastasis type lymphoma cell lines.

[7] = system: U2932; assay: as above; type: cell-based; settings: Homo sapiens; U2932, 72 hours; read-out: IC50
Procedure: as §1

[8] = system: Jeko-1; assay: as above; type: cell-based; settings: Homo sapiens; Jeko-1, 72 hours; read-out: IC50
Procedure: as §1

[9] = system: NCI-H1975; assay: cells; type: cell-based; settings: Homo sapiens; NCI-H1975, 72 hours; read-out: IC50
[10] = system: NCI-H1650; assay: cells; type: cell-based; settings: Homo sapiens; NCI-H1650, 72 hours; read-out: IC50
[11] = system: KYSE-70; assay: Inhibitory activity for other high metastasis type cancer cell line (MTT or CCK-8); type: cell-based; settings: Homo sapiens; KYSE-70, 72 hours; read-out: IC50
[12] = system: HO-8910; assay: Inhibitory activity for high metastasis type ovarian cancer cell line (MTT or CCK-8); type: cell-based; settings: HO-8910, 72 hours; read-out: IC50
Procedure: (§2) The two cell lines were inoculated on 96-well cell culture plate in an amount of 6000 cells per well and cultured at 37° C. for 24 hours, and then treated solely with the representative compound added therein and cultured. Seventy-two hours later, MTT or CCK-8 method was used to detect the inhibitory activity of the representative compound for the high metastasis type ovarian cancer cell lines.

[13] = system: A2780; assay: as above; type: cell-based; settings: Homo sapiens; A2780, 72 hours; read-out: IC50
Procedure: as §2

[14] = system: HMLE-Snail cell line; assay: Formation of HMLE-Snail cell line spheroids; type: cell-based; settings: 10 μg/ml, treated for 24 hours; control = 100; read-out: Colony (%): cell colony number of drug-treated group/cell colony number of control group × 100%

## C[S+]([O-])CCCCN=C=S (centres unmarked) [SFN, sulforaphane, reference compound]
[1]; 504 h, 80 mg/kg intraperitoneal injection once a day for 3 weeks, read-out: T/C (%)
  response vs control in vivo at 80 mg/kg: 95%
[1]; 720 h, read-out: Mortality (within 30 days)
  mortality at 80 mg/kg: 16.7%
[2]; Animal-1
  Serum TNF-α level, Animal-1: 2.1 ng/mL
[2]; Animal-2
  Serum TNF-α level, Animal-2: 1.8 ng/mL
[2]; Animal-3
  Serum TNF-α level, Animal-3: 2.1 ng/mL
[3]
  pIC50: 4.96
[4]
  pIC50: 4.88
[5]
  pIC50: 4.82
[6]
  pIC50: 4.96
[7]
  pIC50: 4.87
[8]
  pIC50: 5.00
[9]
  pIC50: 4.69
[10]
  pIC50: 4.74
[11]
  pIC50: 4.95
[12]
  pIC50: 4.67
[13]
  pIC50: 4.63
[14]
  activity at 10 µg/mL: 90%
